Experimental data from US10370412B2, “Beta-hairpin peptidomimetics” (Polyphor AG, priority 2013, dated 2019).
Where a SMILES comes first, the peptide text is derived from it. [ ]: non-standard residue; d: D form. Pro(3S-OH) = O=C(O)[C@H]1NCC[C@@H]1O; Dap(CONH2) = NC(=O)NC[C@H](N)C(=O)O; Cha = N[C@@H](CC1CCCCC1)C(=O)O; aThr = C[C@H](O)[C@H](N)C(=O)O; Chg = N[C@H](C(=O)O)C1CCCCC1; Tle = CC(C)(C)[C@H](N)C(=O)O; dDab = NCC[C@@H](N)C(=O)O; hSer = N[C@@H](CCO)C(=O)O; Orn = NCCC[C@H](N)C(=O)O; Api = NC1(C(=O)O)CCNCC1; Dab = NCC[C@H](N)C(=O)O; Nva = CCC[C@H](N)C(=O)O

Test system: human red blood cells (hRBC)
Format: cell-based
Conditions: red cells of human, 1 h
Procedure: The peptides were tested for their hemolytic activity against human red blood cells (hRBC). Fresh hRBC were washed three times with phosphate buffered saline (PBS) and centrifuged for 10 min at 2000×g. Compounds (100 μg/ml) were incubated with 20% hRBC (v/v) for 1 h at 37° C. and shaking at 300 rpm. The final erythrocyte concentration was approximately 0.9×10^9 cells/ml. A value of 0% and 100% cell lyses, respectively, was determined by incubation of hRBC in the presence of PBS containing 0.001% acetic acid and 2.5% Triton X-100 in H2O, respectively. The samples were centrifuged, the supernatants were 8-fold diluted in PBS buffer and the optical densities (OD) were measured at 540 nm. The 100% lyses value (OD540H2O) gave an OD540 of approximately 0.5-1.0. Percent hemolysis was calculated as follows: (OD540peptide/OD540H2O)×100%.

Row | Compound | Hemolysis at 100 μg/ml [%]
1 | C[C@@H]1NC(=O)[C@H](C(C)(C)C)NC(=O)[C@H](CCO)NC(=O)[C@H](Cc2c[nH]c3ccccc23)NC(=O)[C@H](CCN)NC(=O)[C@@H](CCN)NC(=O)[C@H](CCCN)NC(=O)[C@H](CCN)NC(=O)[C@H](Cc2ccc(O)cc2)NC(=O)[C@H](Cc2c[nH]cn2)NC(=O)[C@H](Cc2c[nH]c3ccccc23)NC(=O)[C@@H]2CCCN2C(=O)[C@H]2CCCN2C(=O)[C@H](CO)NC1=O [Ex. 1, cyclo(-Trp-His-Tyr-Dab-Orn-^DDab-Dab-Trp-Hse-tBuGly-Ala-Ser-^DPro-Pro-)] (cyclo(WHY[Dab][Orn][dDab][Dab]W[hSer][Tle]AS[dP]P)) | 1
2 | C[C@@H]1NC(=O)[C@H](C(C)(C)C)NC(=O)[C@H](CCN)NC(=O)[C@H](Cc2c[nH]c3ccccc23)NC(=O)[C@H](CCN)NC(=O)[C@@H](CCN)NC(=O)[C@H](CCCCN)NC(=O)[C@H](CCN)NC(=O)[C@H](CC2CCCCC2)NC(=O)[C@H](Cc2c[nH]c3ccccc23)NC(=O)[C@H](Cc2c[nH]c3ccccc23)NC(=O)[C@@H]2CCCN2C(=O)[C@H]2CCCN2C(=O)[C@H](CO)NC1=O [Ex. 11, cyclo(-Trp-Trp-Cha-Dab-Lys-^DDab-Dab-Trp-Dab-tBuGly-Ala-Ser-^DPro-Pro-)] (cyclo(WW[Cha][Dab]K[dDab][Dab]W[Dab][Tle]AS[dP]P)) | 1
3 | CC(C)(C)[C@@H]1NC(=O)[C@H](CCN)NC(=O)[C@H](Cc2c[nH]c3ccccc23)NC(=O)[C@H](CCN)NC(=O)C2(CCNCC2)NC(=O)[C@H](CCCN)NC(=O)[C@H](CCN)NC(=O)[C@H](CC2CCCCC2)NC(=O)[C@H](Cc2c[nH]cn2)NC(=O)[C@H](Cc2c[nH]c3ccccc23)NC(=O)[C@@H]2[C@@H](O)CCN2C(=O)[C@H]2CCCN2C(=O)[C@H](CO)NC(=O)[C@H](CO)NC1=O [Ex. 14, cyclo(-Trp-His-Cha-Dab-Orn-Pip-Dab-Trp-Dab-tBuGly-Ser-Ser-^DPro-Pro((3S)OH)—)] (cyclo(WH[Cha][Dab][Orn][Api][Dab]W[Dab][Tle]SS[dP][Pro(3S-OH)])) | 4
4 | CC(C)(C)[C@@H]1NC(=O)[C@H](CCN)NC(=O)[C@H](Cc2c[nH]c3ccccc23)NC(=O)[C@H](CCN)NC(=O)[C@@H](CCN)NC(=O)[C@H](CCCN)NC(=O)[C@H](CCN)NC(=O)[C@H](CC2CCCCC2)NC(=O)[C@H](Cc2c[nH]c3ccccc23)NC(=O)[C@H](Cc2c[nH]c3ccccc23)NC(=O)[C@@H]2[C@@H](O)CCN2C(=O)[C@H]2CCCN2C(=O)[C@H](CO)NC(=O)[C@H](CO)NC1=O [Ex. 15, cyclo(-Trp-Trp-Cha-Dab-Orn-^DDab-Dab-Trp-Dab-tBuGly-Ser-Ser-^DPro-Pro((3S)OH)—)] (cyclo(WW[Cha][Dab][Orn][dDab][Dab]W[Dab][Tle]SS[dP][Pro(3S-OH)])) | 0
5 | COc1ccc(C[C@@H]2NC(=O)[C@H](Cc3c[nH]cn3)NC(=O)[C@H](Cc3c[nH]c4ccccc34)NC(=O)[C@@H]3CCCN3C(=O)[C@H]3CCCN3C(=O)[C@H](CO)NC(=O)[C@H](C)NC(=O)[C@H](C(C)(C)C)NC(=O)[C@H](CCO)NC(=O)[C@H](Cc3c[nH]c4ccccc34)NC(=O)[C@H](CCN)NC(=O)[C@@H](CCN)NC(=O)[C@H](CCCN)NC(=O)[C@H](CCN)NC2=O)cc1 [Ex. 16, cyclo(-Trp-His-Tyr(Me)-Dab-Orn-^DDab-Dab-Trp-Hse-tBuGly-Ala-Ser-^DPro-Pro-)] (cyclo(WHY(Me)[Dab][Orn][dDab][Dab]W[hSer][Tle]AS[dP]P)) | 1
6 | CC(C)C[C@@H]1NC(=O)[C@@H]2CCCN2C(=O)[C@H]2CCCN2C(=O)[C@H]([C@H](C)O)NC(=O)[C@H](C)NC(=O)[C@H](C(C)(C)C)NC(=O)[C@H](CCN)NC(=O)[C@H](Cc2c[nH]c3ccccc23)NC(=O)[C@H](CCN)NC(=O)[C@@H](CCN)NC(=O)[C@H](CCCN)NC(=O)[C@H](CCN)NC(=O)[C@H](CC2CCCCC2)NC(=O)[C@H](Cc2c[nH]cn2)NC1=O [Ex. 17, cyclo(-Leu-His-Cha-Dab-Orn-^DDab-Dab-Trp-Dab-tBuGly-Ala-alloThr-^DPro-Pro-)] (cyclo(LH[Cha][Dab][Orn][dDab][Dab]W[Dab][Tle]A[aThr][dP]P)) | 5
7 | C[C@@H]1NC(=O)[C@H](C(C)(C)C)NC(=O)[C@H](CCN)NC(=O)[C@H](Cc2c[nH]c3ccccc23)NC(=O)[C@H](CCN)NC(=O)[C@@H](CCN)NC(=O)[C@H](CCCN)NC(=O)[C@H](CCN)NC(=O)[C@H](Cc2ccc(O)cc2)NC(=O)[C@H](Cc2c[nH]cn2)NC(=O)[C@H](Cc2c[nH]c3ccccc23)NC(=O)[C@@H]2CCCN2C(=O)[C@H]2CCCN2C(=O)[C@H](CO)NC1=O [compound 2, cyclo(-Trp-His-Tyr-Dab-Orn-^DDab-Dab-Trp-Dab-tBuGly-Ala-Ser-^DPro-Pro-)] (cyclo(WHY[Dab][Orn][dDab][Dab]W[Dab][Tle]AS[dP]P)) | 1
8 | CCC[C@@H]1NC(=O)[C@H](CCN)NC(=O)[C@H](Cc2c[nH]c3ccccc23)NC(=O)[C@H](CCN)NC(=O)[C@@H](CCN)NC(=O)[C@H](CCCN)NC(=O)[C@H](CCN)NC(=O)[C@H](CC2CCCCC2)NC(=O)[C@H](Cc2c[nH]cn2)NC(=O)[C@H](Cc2c[nH]c3ccccc23)NC(=O)[C@@H]2CCCN2C(=O)[C@H]2CCCN2C(=O)[C@H](CO)NC(=O)[C@H](C)NC1=O [compound 3, cyclo(-Trp-His-Cha-Dab-Orn-^DDab-Dab-Trp-Dab-Nva-Ala-Ser-^DPro-Pro-)] (cyclo(WH[Cha][Dab][Orn][dDab][Dab]W[Dab][Nva]AS[dP]P)) | 3
9 | CC(C)[C@@H]1NC(=O)[C@H](C(C)(C)C)NC(=O)[C@H](CCN)NC(=O)[C@H](Cc2c[nH]c3ccccc23)NC(=O)[C@H](CCN)NC(=O)[C@@H](CCN)NC(=O)[C@H](CCCN)NC(=O)[C@H](CCN)NC(=O)[C@H](CC2CCCCC2)NC(=O)[C@H](Cc2c[nH]cn2)NC(=O)[C@H](Cc2c[nH]c3ccccc23)NC(=O)[C@@H]2CCCN2C(=O)[C@H]2CCCN2C(=O)[C@H](CO)NC1=O [compound 4, cyclo(-Trp-His-Cha-Dab-Orn-^DDab-Dab-Trp-Dab-tBuGly-Val-Ser-^DPro-Pro-)] (cyclo(WH[Cha][Dab][Orn][dDab][Dab]W[Dab][Tle]VS[dP]P)) | 5
10 | CC(C)C[C@@H]1NC(=O)[C@@H]2CCCN2C(=O)[C@H]2CCCN2C(=O)[C@H](CO)NC(=O)[C@H](C)NC(=O)[C@H](C(C)(C)C)NC(=O)[C@H](CCN)NC(=O)[C@H](Cc2c[nH]c3ccccc23)NC(=O)[C@H](CCN)NC(=O)[C@@H](CCN)NC(=O)[C@H](CCCN)NC(=O)[C@H](CCN)NC(=O)[C@H](Cc2ccc(O)cc2)NC(=O)[C@H](Cc2c[nH]cn2)NC1=O [compound 5, cyclo(-Leu-His-Tyr-Dab-Orn-^DDab-Dab-Trp-Dab-tBuGly-Ala-Ser-^DPro-Pro-)] (cyclo(LHY[Dab][Orn][dDab][Dab]W[Dab][Tle]AS[dP]P)) | 0
11 | CC(C)C[C@@H]1NC(=O)[C@@H]2CCCN2C(=O)[C@H]2CCCN2C(=O)[C@H](CO)NC(=O)[C@H](CNC(N)=O)NC(=O)[C@H](C(C)(C)C)NC(=O)[C@H](CCN)NC(=O)[C@H](Cc2c[nH]c3ccccc23)NC(=O)[C@H](CCN)NC(=O)C2(CCNCC2)NC(=O)[C@H](CCCN)NC(=O)[C@H](CCN)NC(=O)[C@H](CC2CCCCC2)NC(=O)[C@H](Cc2c[nH]cn2)NC1=O [compound 6, cyclo(-Leu-His-Cha-Dab-Orn-Pip-Dab-Trp-Dab-tBuGly-Alb-Ser-^DPro-Pro-)] (cyclo(LH[Cha][Dab][Orn][Api][Dab]W[Dab][Tle][Dap(CONH2)]S[dP]P)) | 3
12 | CC(C)[C@@H]1NC(=O)[C@@H]2CCCN2C(=O)[C@H]2CCCN2C(=O)[C@H](CO)NC(=O)[C@H](C)NC(=O)[C@H](C(C)(C)C)NC(=O)[C@H](CCN)NC(=O)[C@H](Cc2c[nH]c3ccccc23)NC(=O)[C@H](CCN)NC(=O)[C@@H](CCN)NC(=O)[C@H](CCCN)NC(=O)[C@H](CCN)NC(=O)[C@H](Cc2ccc(O)cc2)NC(=O)[C@H](Cc2c[nH]cn2)NC1=O [compound 7, cyclo(-Val-His-Tyr-Dab-Orn-^DDab-Dab-Trp-Dab-tBuGly-Ala-Ser-^DPro-Pro-)] (cyclo(VHY[Dab][Orn][dDab][Dab]W[Dab][Tle]AS[dP]P)) | 1
13 | CCC[C@@H]1NC(=O)[C@@H]2CCCN2C(=O)[C@H]2CCCN2C(=O)[C@H](CO)NC(=O)[C@H](C)NC(=O)[C@H](C(C)(C)C)NC(=O)[C@H](CCN)NC(=O)[C@H](Cc2c[nH]c3ccccc23)NC(=O)[C@H](CCN)NC(=O)[C@@H](CCN)NC(=O)[C@H](CCCN)NC(=O)[C@H](CCN)NC(=O)[C@H](Cc2ccc(O)cc2)NC(=O)[C@H](Cc2c[nH]cn2)NC1=O [compound 8, cyclo(-Nva-His-Tyr-Dab-Orn-^DDab-Dab-Trp-Dab-tBuGly-Ala-Ser-^DPro-Pro-)] (cyclo([Nva]HY[Dab][Orn][dDab][Dab]W[Dab][Tle]AS[dP]P)) | 1
14 | C[C@@H]1NC(=O)[C@H](C2CCCCC2)NC(=O)[C@H](CCN)NC(=O)[C@H](Cc2c[nH]c3ccccc23)NC(=O)[C@H](CCN)NC(=O)[C@@H](CCN)NC(=O)[C@H](CCCCN)NC(=O)[C@H](CCN)NC(=O)[C@H](CC2CCCCC2)NC(=O)[C@H](Cc2c[nH]c3ccccc23)NC(=O)[C@H](Cc2c[nH]c3ccccc23)NC(=O)[C@@H]2CCCN2C(=O)[C@H]2CCCN2C(=O)[C@H](CO)NC1=O [compound 10, cyclo(-Trp-Trp-Cha-Dab-Lys-^DDab-Dab-Trp-Dab-Chg-Ala-Ser-^DPro-Pro-)] (cyclo(WW[Cha][Dab]K[dDab][Dab]W[Dab][Chg]AS[dP]P)) | 1
